Experimental data published in patent US9598407B2, “Antibacterial piperidinyl substituted 3,4-dihydro-1H-[1,8]naphthyridinones” (JANSSEN SCIENCES IRELAND UC, priority 2011, dated 2017).

Legend:
[1] = biological target: S. aureus ATCC 29213 FabI (Staphylococcus aureus (strain MRSA252), UniProt Q6GI75); test: Staphylococcus aureus FabI enzyme inhibition assay; format: biochemical; conditions: 30 minutes at room temperature, pH 6.5
Method: D.1 FabI Enzyme Inhibition: Staphylococcus aureus FabI Enzyme Inhibition Assay
FabI enzyme inhibition assays were carried out in half-area, 384-well microtitre plates. Compounds were evaluated in 40-μl assay mixtures containing 100 mM NaADA, pH 6.5 (ADA=N-[2-acetamido]-2iminodiacetic acid), 250 μM crotonoyl-CoA, 625 μM NADH and 50 μg/ml S. aureus ATCC 29213 FabI Inhibitors were typically varied over the range of 50 to 0.39 μM. The reaction mixtures were incubated for 30 minutes at room temperature and the reaction was stopped by adding 200 mM Tris buffer (pH 9.0) to create a pH-shift. The consumption of NADH was monitored by measuring the change in absorbance at […]. By comparing sample readings to those of negative (absence of compound) and positive (absence of enzyme) controls, the percent inhibition of enzymatic activity of the compounds was determined A best-fit curve is fitted by a minimum of squares method. From this an IC50-value (expressed in μg/ml), resulting in 50% inhibition of enzymatic activity, was obtained.

[2] = test system: Staphylococcus aureus ATCC 29213; test: Antibacterial susceptibility testing, IC90 determination (STA 361.159); format: cell-based; conditions: STA ATCC 29213; 90% inhibitory concentration for bacterial growth
Method: D.2 In Vitro Method for Testing Compounds for Antibacterial Activity Against Various Bacterial Strains Preparation of Bacterial Suspensions for Susceptibility Testing
(§1) The following bacteria were used: Staphylococcus aureus ATCC 29213, methicillin-resistant Staphylococcus aureus (MRSA) ATCC 700788 and Escherichia coli ATCC 35218. The bacteria used in this study were grown overnight in flasks containing 100 ml Mueller-Hinton broth (Difco cat. nr. 0757-17) in sterile de-ionized water, with shaking, at 37° C. Stocks were store at −70° C. until use.
(§2) Bacteria were incubated on a tryptic soy agar plate containing 5% sheep blood (Becton Dickinson cat. nr. 254053) for 18-24 hours at 35° C. in aerobic conditions (first passage). For the second passage, fresh Mueller-Hinton broth is inoculated with 5-10 colonies and grown overnight at 35° C. until turbidity (reaching log-phase) in aerobic conditions is reached. The bacterial suspension is then adjusted to 0.5 McFarland density and further diluted 1:100 in Mueller Hinton broth medium. This is used as inoculum.
Antibacterial Susceptibility Testing: IC90 Determination
(§3) MIC assays were performed by the broth microdilution method in a 96-well format (flat-bottom microtitre plates) with a final volume of 0.1 ml Mueller Hinton broth containing two-fold serial dilutions of compounds and inoculated with 5×10^5 CFU/ml of bacteria (standard inoculum size according to CLSI guidelines). Inhibitors are typically varied over the range of 63 to 0.49 μM. The final DMSO concentration in the assay was 1.25% (maximum tolerable DMSO concentration=6%). In the assays where the effect of human serum on the activity of the compounds against S. aureus was tested, human serum was added at a final concentration of 10%. The plates were incubated at 35° C. for 16-20 hours. At the end of incubation the bacterial growth was quantified fluorometrically. For this, resazurin was added to all wells and the plates were re-incubated. The incubation time is dependent on the type of bacteria. A change in color from blue to pink indicated the growth of bacteria. The fluorescence was read in computer-controlled fluorometer (Fluoroskan Ascent FL, Labsystems) at an excitation wavelength 540 nm and an emission wavelength of 590 nm. The % growth inhibition achieved by the compounds was calculated according to standard methods. The IC90 (expressed in μg/ml) was defined as the 90% inhibitory concentration for bacterial growth. A panel of reference compounds were simultaneously tested for QC approval.

S. aureus = test: Antibacterial susceptibility testing, IC90 with 10% human serum (STA + 10% HS 361.169); format: cell-based, Staphylococcus aureus; conditions: S. aureus with 10% human serum
Method: as §1, §2, §3
The results are depicted in the table D2 below (STA+10% HS).

Human HelaM cells = test: Cytotoxicity MTT assay (TOX HELAM 222.125); format: cell-based; conditions: 72 hours
Method: Cytotoxicity of the compounds was evaluated using the MTT assay. Human HelaM cells grown in 96-well plates were exposed to serial dilutions of the tested compounds (final volume of 0.2 ml) and incubated for 72 hours at 37° C. and 5% CO2 Inhibitors are typically varied over the range of 25 to 0.8 μM. The final DMSO concentration in the assay is 0.5%. MTT (3-(4,5-Dimethylthiazol-2-yl)-2,5-diphenyltetrazolium bromide, a tetrazole) was added and reduced to purple formazan only in living cells. Solubilization of the formazan crystals was achieved by adding 100 μl 2-propanol. Cell viability was determined by measuring the absorbance of the reduced formazan, giving a purple color, at 540 nm and 690 nm. The absorbance measured at 690 nm was automatically subtracted from the absorbance at 540 nm, to eliminate the effects of non-specific absorption. The percent cytotoxicity achieved by the compounds was calculated according to standard methods. Cytotoxicity is reported as CC50, the concentration that causes a 50% reduction in cell viability.
The results are depicted in the table D2 below (TOX HELAM).

| Compound | FabI IC50 [1] [µg/mL] | STA (361.159) IC90 [2] [µg/mL] | STA + 10% HS (361.169) IC90 (S. aureus) [µg/mL] | TOX HELAM (222.125) CC50 (Human HelaM cells) [µg/mL] |
| --- | --- | --- | --- | --- |
| O=C1CCc2cc(/C=C/C(=O)N3CCC(Cc4coc5cc(F)ccc45)CC3)cnc2N1 [compound 31] | 0.79 | – | – | – |
| O=C1CCc2cc(/C=C/C(=O)N3CCC(CC4CCCS4)CC3)cnc2N1 (centres unmarked) [compound 36] | 0.61 | 8.43 | 11.38 | >9.684 |
| O=C1CCc2cc(/C=C/C(=O)N3CCCCC3)cnc2N1 [compound 26] | 2.73 | – | – | – |
| O=C1CCc2cc(/C=C/C(=O)N3CCC(CCOc4ccccc4)CC3)cnc2N1 [compound 29] | 1.00 | – | – | – |
| COc1ccccc1C1CCN(C(=O)/C=C/c2cnc3c(c2)CCC(=O)N3)CC1 [compound 13] | 0.53 | – | – | – |
| COc1ccc(C2=CCN(C(=O)/C=C/c3cnc4c(c3)CCC(=O)N4)CC2)cc1 [compound 23] | 0.85 | – | – | – |
| O=C1CCc2cc(/C=C/C(=O)N3CCN(Cc4ccccc4)CC3)cnc2N1 [compound 24] | 7.17 | – | – | – |
| COc1ccccc1C1=CCN(C(=O)/C=C/c2cnc3c(c2)CCC(=O)N3)CC1 [compound 2] | 0.32 | 1.97 | 2.99 | >9.783 |
| O=C1CCc2cc(/C=C/C(=O)N3CCC(Cn4ccc5ccccc54)CC3)cnc2N1 [compound 39] | 2.74 | – | – | – |
| O=C1CCc2cc(/C=C/C(=O)N3CCC(Oc4ccccc4)CC3)cnc2N1 [compound 28] | 0.93 | – | – | – |
| O=C1CCc2cc(/C=C/C(=O)N3CC=C(c4ccccc4)CC3)cnc2N1 [compound 7] | 0.41 | 2.07 | 2.54 | >9.028 |
| O=C1CCc2cc(/C=C/C(=O)N3CC=C(c4cccc(C(F)(F)F)c4)CC3)cnc2N1 [compound 19] | 1.12 | – | – | – |
| O=C1CCc2cc(/C=C/C(=O)N3CCC(C(=O)c4ccccc4)CC3)cnc2N1 [compound 6] | 1.74 | – | – | – |
| O=C1CCc2cc(/C=C/C(=O)N3CC=C(c4ccc5c(c4)OCO5)CC3)cnc2N1 [compound 8] | 0.53 | – | – | – |
| COc1cccc(C2=CCN(C(=O)/C=C/c3cnc4c(c3)CCC(=O)N4)CC2)c1 [compound 22] | 0.93 | 21.16 | >24.5733 | >9.783 |
| CC1CN(C(=O)/C=C/c2cnc3c(c2)CCC(=O)N3)CC=C1c1ccccc1 (centres unmarked) [compound 27] | 0.57 | 6.13 | 21.99 | >9.381 |
| O=C1CCc2cc(/C=C/C(=O)N3CCC(c4cccc(O)c4)CC3)cnc2N1 [compound 5] | 0.35 | 10.52 | 11.14 | >9.481 |
| COc1ccncc1C1=CCN(C(=O)/C=C/c2cnc3c(c2)CCC(=O)N3)CC1 [compound 20] | 0.78 | 13.23 | 16.85 | >9.808 |
| O=C1CCc2cc(/C=C/C(=O)N3CCCC(Oc4ccccc4)C3)cnc2N1 (centres unmarked) [compound 1] | 3.52 | – | – | – |

| Compound | FabI IC50 [1] [µg/mL] | STA (361.159) IC90 [2] [µg/mL] | STA + 10% HS (361.169) IC90 (S. aureus) [µg/mL] | TOX HELAM (222.125) CC50 (Human HelaM cells) [µg/mL] |
| --- | --- | --- | --- | --- |
| O=C1CCc2cc(/C=C/C(=O)N3CCC(Cn4cnnc4)CC3)cnc2N1 [compound 38] | >7.31 | – | – | – |
| O=C1CCc2cc(/C=C/C(=O)N3CCC(COc4ccc(F)cc4)CC3)cnc2N1 [compound 34] | 0.47 | 9.94 | 12.51 | >10.2852 |
| O=C1CCc2cc(/C=C/C(=O)N3CCC(Cn4cncn4)CC3)cnc2N1 [compound 40] | 1.43 | – | – | – |
| COc1ccccc1CC1=CCN(C(=O)/C=C/c2cnc3c(c2)CCC(=O)N3)CC1 [compound 14] | 1.06 | 6.93 | 13.06 | >10.1352 |
| O=C1CCc2cc(/C=C/C(=O)N3CCC(Cc4ccc5ccccc5n4)CC3)cnc2N1 [compound 41] | 3.39 | – | – | – |
| O=C1CCc2cc(/C=C/C(=O)N3CC=CCC3)cnc2N1 [compound 15] | 3.57 | – | – | – |
| O=C1CCc2cc(/C=C/C(=O)N3CCc4ccccc4C3)cnc2N1 [compound 3] | 0.48 | 8.67 | 10.79 | >8.374 |
| O=C1CCc2cc(/C=C/C(=O)N3CC=C(c4ccccc4Cl)CC3)cnc2N1 [compound 16] | 0.58 | 3.31 | 8.52 | 8.04 |
| O=C1CCc2cc(/C=C/C(=O)N3CCC(Cc4ccccc4)CC3)cnc2N1 [compound 12] | 0.31 | 1.19 | 2.09 | >9.431 |
| O=C1CCc2cc(/C=C/C(=O)N3CCC(O)(c4ccc(Cl)cc4)CC3)cnc2N1 [compound 11] | 0.80 | – | – | – |
| O=C1CCc2cc(/C=C/C(=O)N3CC=C(c4ccoc4)CC3)cnc2N1 [compound 10] | 0.48 | 10.43 | 20.34 | >8.776 |
| O=C1CCc2cc(/C=C/C(=O)N3CC=C(c4ccco4)CC3)cnc2N1 [compound 9] | 0.34 | 2.91 | 2.65 | >8.776 |
| Cc1ccc(-c2ccccc2)n1CC1CCN(C(=O)/C=C/c2cnc3c(c2)CCC(=O)N3)CC1 [compound 42] | 10.18 | – | – | – |
| O=C1CCc2cc(/C=C/C(=O)N3CCC(CCOc4ccc(F)cc4)CC3)cnc2N1 [compound 30] | 1.34 | – | – | – |
| O=C1CCc2cc(/C=C/C(=O)N3CC=C(c4cccnc4)CC3)cnc2N1 [compound 18] | 0.67 | – | – | – |
| O=C1CCc2cc(/C=C/C(=O)N3CCC(Cc4nc5ccccc5s4)CC3)cnc2N1 [compound 32] | 1.72 | – | – | – |
| O=C1CCc2cc(/C=C/C(=O)N3CCN(c4ccccc4)CC3)cnc2N1 [compound 25] | 1.48 | – | – | – |
| COc1ccccc1C1=CCCN(C(=O)/C=C/c2cnc3c(c2)CCC(=O)N3)C1 [compound 21] | 0.80 | – | – | – |
| O=C1CCc2cc(/C=C/C(=O)N3CC=C(c4cc5ccccc5o4)CC3)cnc2N1 [compound 17] | 1.91 | – | – | – |
